Laboratory results reported in patent US20070093469A1, “Substituted azetidine compounds as cyclooxygenase-1-cyclooxygenase-2 inhibitors, and their preparation and use as medicaments” (LABORATORIOS DEL DR. ESTEVE S.A, priority 2004, published 2007).
pIC50: −log10 of the molar value.

Columns and labels:
rats = experiment: Analgesia test in rats (carrageenan, thermal stimulus); assay type: in vivo; settings: Rattus norvegicus, oral route, 2 hours after administration, read-out: ED50 analgesic activity
Description: III: Analgesia Test in Rats
The inventive compounds are tested for analgesic activity as described above is carried out as described in the publication of K. Hargreaves et al., Pain, 32, 77-88, (1988). The respective part of the description is hereby incorporated by reference and forms part of the disclosure.
The rats are transferred to the experimentation laboratory, where they remain in groups of 5, in makrolon cages with a barred floor to avoid coprophagy. At the beginning of the experiment, water and food were removed, and animals were adequately weighed and marked.
Each rat receives via subplantar injection 0.1 ml of sterile saline solution into the left hind paw, followed by 0.1 ml of a 2% (weight/volume) carrageenan suspension in sterile saline solution into the right hind paw.
Two hours after the subplantar injections of carrageenan and vehicle, each rat receives by oral route the compounds to be tested, suspended in 5% (weight/volume) gum arabic, administered at 10 ml per kg of body weight. Two hours after the administration of the compounds to be tested, the values for analgesic activity are determined. To this purpose, the rats are transferred to the methacrylate chambers of an analgesimeter provided with a glass floor. Once the acclimatisation period in the chambers is over (i.e. after 5 minutes) an infra-red beam lamp capable of producing a thermal stimulus, is placed below the rat's paws.
The thermal stimulus, previously calibrated at 10 Amperes, is applied to each of the hind paws with at least 1 minute intervals. The response of the rats to pain consists of raising the paw, thus avoiding contact with the floor. […] The rats are tested once only to avoid possible learning behaviour.

Cox-2 enzyme = target: T1, Cox-2 enzyme (Ovis aries, UniProt P79208); experiment: Cox-1/Cox-2 enzyme assay (Cox-2); assay type: biochemical; settings: for pIC50: enzyme assay
T1 construct: purchased Cayman Chemical 60120
T1 sequence (P79208 17-603): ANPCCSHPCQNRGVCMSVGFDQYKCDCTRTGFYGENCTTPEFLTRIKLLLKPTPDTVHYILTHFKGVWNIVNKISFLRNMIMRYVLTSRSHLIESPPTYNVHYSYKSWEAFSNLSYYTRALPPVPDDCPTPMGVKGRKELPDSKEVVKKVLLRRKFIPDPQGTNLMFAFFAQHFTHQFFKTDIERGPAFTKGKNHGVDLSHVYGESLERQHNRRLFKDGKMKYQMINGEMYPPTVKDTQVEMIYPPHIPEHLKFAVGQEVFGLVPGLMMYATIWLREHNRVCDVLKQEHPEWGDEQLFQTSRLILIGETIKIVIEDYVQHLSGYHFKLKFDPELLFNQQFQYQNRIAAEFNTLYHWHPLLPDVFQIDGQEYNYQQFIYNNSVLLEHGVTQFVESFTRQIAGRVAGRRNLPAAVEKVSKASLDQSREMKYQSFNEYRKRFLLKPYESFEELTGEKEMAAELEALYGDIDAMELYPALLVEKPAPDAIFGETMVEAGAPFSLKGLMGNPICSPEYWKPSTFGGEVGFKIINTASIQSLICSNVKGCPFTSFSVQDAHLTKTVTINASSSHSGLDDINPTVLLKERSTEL
Description: I. Cox-1/Cox-2 Enzyme Assay:
The Cox-1/Cox-2 enzyme assay for the inventive azetidine compounds is carried out according to the following description:
Immediately after the addition of the substrate, the slope corresponding to the optical density increase at 480 nm is recorded for 1 minute. The reaction is monitored with a Hewlett-Packard 8452A spectrophotometer.

[1] = system: PGE2 production in rat gastric mucosa; experiment: PGE2 production in rat gastric mucosa; assay type: in vivo; settings: rats, oral route, read-out: PGE2 gastric mucose ED50
Description: VI: PGE2 Production in Rat Inflammatory Exudate and Gastric Mucosa
The PGE2 production in rat inflammatory exudate and gastric mucosa is carried out as described in the publication of O Tofanetti et al., “Effect of nimesulide on cyclo-oxygenase activity in rat gastric mucosa and inflammatory exudate”, Med Sci Res 17, 745-746 (1989). The respective part of the description is hereby incorporated by reference and forms part of the present disclosure.
For this text 6 male wistar rats (Interfauna-St Feliú de Codines, Barcelona) of approximately 200 g (each approximately 6 weeks of age) are used. The compounds to be tested are administered via oral route in gum Arabic at 5% (weight/volume) at a rate of 10 ml/kg.
One hour after administration of the compounds and under halothane anaesthesia, each rat is implanted subcutaneously in the interescapular area a 40×15×5 mm polyester sponge, soaked in a 0.5% suspension of carrageenan. Rats are sacrificed 6 hours after the implant, the sponges are removed and squeezed. The exudates are collected and centrifuged at 6000×G for 15 minutes.
The rats's stomachs are removed and the gastric mucosa is detached from the underlying layers and by means of a 10 mm diameter die, mucosa samples from an area between the gastric corpus and pyloric antrum are taken. The mucosal PGE2 is extracted. PGE2 concentrations from the inflammatory exudates and the gastric mucosa are determined by means of inmmunoassay reagents of Cayman Chemical kit, Ann Arbor, Mich., U.S.A. (Catalogue number: 514010) according to the manufacturer's instructions.

Cox-1 = target: T2, Cox-1 (Homo sapiens, UniProt P23219); experiment: Cox-1 activity in human whole blood (TXB2); assay type: cell-based; settings: read-out: hWB inhibition COX-1 IC50
T2 construct: from tissue; host or cells: fresh human whole blood
T2 sequence (P23219 24-599): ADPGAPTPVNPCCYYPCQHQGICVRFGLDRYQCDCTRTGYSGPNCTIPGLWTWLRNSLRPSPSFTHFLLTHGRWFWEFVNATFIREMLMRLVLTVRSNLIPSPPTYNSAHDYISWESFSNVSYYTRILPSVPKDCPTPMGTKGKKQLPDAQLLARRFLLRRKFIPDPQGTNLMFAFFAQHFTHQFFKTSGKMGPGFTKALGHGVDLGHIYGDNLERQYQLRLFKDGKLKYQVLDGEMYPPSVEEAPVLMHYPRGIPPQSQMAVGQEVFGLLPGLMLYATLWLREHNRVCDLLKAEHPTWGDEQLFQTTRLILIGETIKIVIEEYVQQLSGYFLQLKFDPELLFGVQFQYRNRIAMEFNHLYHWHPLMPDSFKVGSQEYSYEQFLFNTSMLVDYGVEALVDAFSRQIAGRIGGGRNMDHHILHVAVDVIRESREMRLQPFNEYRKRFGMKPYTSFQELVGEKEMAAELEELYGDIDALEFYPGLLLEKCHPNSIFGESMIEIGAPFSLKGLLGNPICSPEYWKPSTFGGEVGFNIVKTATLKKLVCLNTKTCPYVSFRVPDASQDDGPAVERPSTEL
Description: II. Determination of Cox-1- and Cox-2-Activity in Human Whole Blood
The Cox-1- and Cox-2-activity in human whole blood is determined according to a modification of the method described in the publication of C. Brideau et al., “A human whole blood assay for clinical evaluation of biochemical efficacy of cyclooxygenase inhibitors”, Inflamm Res 1996; 45: 68-74. The respective part of the description is hereby incorporated by reference and forms part of the present disclosure.
For Cox-1 activity determination, fresh human blood is distributed in a volume of 0.5 ml to silicone Eppendorf tubes, into which 2 μl of the compound to be tested or dimethylsulfoxide (DMSO) at a final concentration of 0.4% (volume/volume). The tubes are inverted for homogenization and incubated for 1 hour at 37° C. under slight stirring. Afterwards they are centrifuged for 15 min at 10500 g and 100 μl of serum is collected. Proteins are precipitated by the addition of 400 μl of methanol to each tube, tubes were centrifuged for 10 minutes at 5000 g and 300 μl of supernatant is aspirated and then dried under nitrogen atmosphere.
Tromboxane B2 (TXB2) concentration is quantified using an assay kit (Caymann Chemical, Ann Arbor, Mich., U.S.A., Catalogue number 519031) after reconstitution into 300 μl assay buffer supplied in the assay kit.

Compound	ED50 (rats) [mg/kg]	pIC50 (Cox-2 enzyme)	inhibition at 50 µM (Cox-2 enzyme; read-out: % inhibition 5 × 10^−5 M COX-2) [%]	ED50 [1] [mg/kg]	pIC50 (Cox-1)	melting point [°C]
CC(C)(C)c1cc(C(=O)N2CC(O)C2)cc(C(C)(C)C)c1 [Example 2, (3,5-di-tert-butyl-phenyly)-(3-hydroxy-azetidin-1-yl)-methanone]	1.65	5.74	78	3.7	6.30	146 to 149
CC1C(O)CN1C(=O)c1cc(C(C)(C)C)c(O)c(C(C)(C)C)c1 (stereo not shown) [Example 4, (3,5-di-tert-butyl-4-hydroxy-phenyl)-(3-hydroxy-2-methyl-azetidin-1-yl)-methanone]	0.7	5.43		1	6.30	162 to 166
CC(C)(C)c1cc(C(=O)N2CC(O)C2)cc2c1OCC2(C)C [Example 14, (7-tert-butyl-3,3-dimethyl-2,3-dihydro-benzofuran-5-yl)-(3-hydroxy-azetidin-1-yl)-methanone]	3	6.22		2.7	7.30	144 to 148
